“And” between values parts separate entries of the source, which are not always exact repeats. Equal entries are not always repeated. Toxic doses and inconclusive results are not listed. Rule as the data show it: active = T/C of 150% or more; inactive = T/C below 125%.
System: L1210 leukemia ip in BDF1 mice, survival T/C
Assay: NCI In Vivo Anticancer Drug Screen. Data for tumor model L1210 Leukemia (intraperitoneal) in B6D2F1 (BDF1) mice
Settings: endpoint: mean survival time, higher = longer survival
Outline: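 Tumor cells were implanted, animals were treated, and survival was followed. The result divides the treated measurement by the vehicle-control measurement.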

[1] = dose: 4.0 mg/kg/injection, schedule: Q12HX018 (ip), vehicle: other
[2] = dose: 6.0 mg/kg/injection, schedule: Q12HX018 (ip), vehicle: other
[3] = dose: 8.0 mg/kg/injection, schedule: Q12HX018 (ip), vehicle: other
[4] = dose: 100.0 mg/kg/injection, schedule: Q01DX009 (ip), vehicle: saline
[5] = dose: 100.0 mg/kg/injection, schedule: Q04DX003 (ip), vehicle: Klucel (hydroxypropylcellulose) (HPC)
[6] = dose: 200.0 mg/kg/injection, schedule: Q01DX009 (ip), vehicle: saline
[7] = dose: 200.0 mg/kg/injection, schedule: Q04DX003 (ip), vehicle: Klucel (hydroxypropylcellulose) (HPC)
[8] = dose: 400.0 mg/kg/injection, schedule: Q01DX009 (ip), vehicle: saline
[9] = dose: 400.0 mg/kg/injection, schedule: Q04DX003 (ip), vehicle: Klucel (hydroxypropylcellulose) (HPC)
[10] = dose: 12.5 mg/kg/injection, schedule: Q01DX009 (ip), vehicle: saline with Tween-80
[11] = dose: 25.0 mg/kg/injection, schedule: Q01DX009 (ip), vehicle: saline with Tween-80
[12] = dose: 100.0 mg/kg/injection, schedule: Q01DX009 (ip), vehicle: saline with Tween-80
[13] = dose: 200.0 mg/kg/injection, schedule: Q01DX009 (ip), vehicle: saline with Tween-80
[14] = dose: 400.0 mg/kg/injection, schedule: Q01DX009 (ip), vehicle: saline with Tween-80
[15] = dose: 100.0 mg/kg/injection, schedule: Q04DX003 (ip), vehicle: saline with Tween-80
[16] = dose: 200.0 mg/kg/injection, schedule: Q04DX003 (ip), vehicle: saline with Tween-80
[17] = dose: 400.0 mg/kg/injection, schedule: Q04DX003 (ip), vehicle: saline with Tween-80

Measured: T/C

Cc1cc(N(CCCl)CCCl)ccc1C1N(Cc2ccccc2N(C)C)CCCN1Cc1ccccc1N(C)C
inactive: [1] 101 % of control | [2] 98 % of control | dose: 8.0 mg/kg/injection, schedule: Q12HX018 (ip), vehicle: Klucel (hydroxypropylcellulose) (HPC) 102 % of control | [3] 109 % of control | dose: 16.0 mg/kg/injection, schedule: Q12HX018 (ip), vehicle: Klucel (hydroxypropylcellulose) (HPC) 107 % of control | dose: 32.0 mg/kg/injection, schedule: Q12HX018 (ip), vehicle: Klucel (hydroxypropylcellulose) (HPC) 105 % of control

N/C(=C\C(=O)Cl)C(=O)c1ccccc1
inactive: dose: 100.0 mg/kg/injection, schedule: Q01DX001 (ip), vehicle: saline with Tween-80 106 % of control | dose: 200.0 mg/kg/injection, schedule: Q01DX001 (ip), vehicle: saline with Tween-80 90 % of control | dose: 400.0 mg/kg/injection, schedule: Q01DX001 (ip), vehicle: saline with Tween-80 105 % of control

COc1cc(N(CCCl)CCCl)c(OC)cc1/C=N\Nc1nncn1N
inactive: dose: 1.2 mg/kg/injection, schedule: Q01DX015 (ip), vehicle: carboxymethylcellulose (CMC) 109 % of control | dose: 1.4 mg/kg/injection, schedule: Q01DX015 (ip), vehicle: carboxymethylcellulose (CMC) 105 % of control | dose: 2.2 mg/kg/injection, schedule: Q01DX015 (ip), vehicle: carboxymethylcellulose (CMC) 107 % of control | dose: 2.5 mg/kg/injection, schedule: Q01DX015 (ip), vehicle: carboxymethylcellulose (CMC) 109 % of control | dose: 3.3 mg/kg/injection, schedule: Q01DX015 (ip), vehicle: carboxymethylcellulose (CMC) 110 % of control | dose: 15.0 mg/kg/injection, schedule: Q01DX015 (ip), vehicle: carboxymethylcellulose (CMC) 96 % of control and 103 % of control | dose: 33.0 mg/kg/injection, schedule: Q01DX001 (ip), vehicle: carboxymethylcellulose (CMC) 124 % of control | dose: 100.0 mg/kg/injection, schedule: Q01DX001 (ip), vehicle: carboxymethylcellulose (CMC) 105 % of control

COC1OC(COC(C)=O)C(OC(C)=O)C(NC(=O)NCCCl)C1OC(C)=O (centres undefined)
inactive: dose: 100.0 mg/kg/injection, schedule: Q01DX001 (ip), vehicle: Klucel (hydroxypropylcellulose) (HPC) 105 % of control | dose: 200.0 mg/kg/injection, schedule: Q01DX001 (ip), vehicle: Klucel (hydroxypropylcellulose) (HPC) 102 % of control | dose: 400.0 mg/kg/injection, schedule: Q01DX001 (ip), vehicle: Klucel (hydroxypropylcellulose) (HPC) 102 % of control

CC(=O)OCCCCBr
inactive: [4] 100 % of control | [5] 98 % of control | [6] 98 % of control | [7] 91 % of control | [8] 98 % of control | [9] 94 % of control

CCNC(=O)Oc1c(Cl)cc(S(=O)(=O)F)cc1Cl
inactive: [10] 90 % of control | dose: 12.5 mg/kg/injection, schedule: Q04DX002 (ip), vehicle: saline with Tween-80 93 % of control | [11] 103 % of control | dose: 25.0 mg/kg/injection, schedule: Q04DX002 (ip), vehicle: saline with Tween-80 101 % of control | dose: 50.0 mg/kg/injection, schedule: Q04DX002 (ip), vehicle: saline with Tween-80 96 % of control

CSc1ccc(NC(=O)CCCc2ccc(N(CCCl)CCCl)cc2)cc1
inactive: [1] 103 % of control | [2] 108 % of control | [3] 115 % of control

CCOc1ccc(/C=N/NC(=O)c2ccc(O)c(OC)c2)cc1OC
inactive: [12] 103 % of control | [13] 92 % of control | [14] 96 % of control

NC(=O)Cc1cc(=O)[nH]c(=O)[nH]1
inactive: dose: 50.0 mg/kg/injection, schedule: Q01DX009 (ip), vehicle: saline 107 % of control | dose: 50.0 mg/kg/injection, schedule: Q04DX003 (ip), vehicle: saline with Tween-80 96 % of control | [4] 102 % of control | [15] 97 % of control | [6] 100 % of control | [16] 94 % of control | [8] 97 % of control | [17] 91 % of control

CCOC(=O)c1cnc(SC)nc1NC(C)(C)C
inactive: [5] 101 % of control | [7] 100 % of control | [9] 94 % of control

Nc1c([N+](=O)[O-])cc(Cl)c(Cl)c1F
inactive: dose: 100.0 mg/kg/injection, schedule: Q04DX002 (ip), vehicle: Klucel (hydroxypropylcellulose) (HPC) 101 % of control | dose: 200.0 mg/kg/injection, schedule: Q04DX002 (ip), vehicle: Klucel (hydroxypropylcellulose) (HPC) 96 % of control | dose: 400.0 mg/kg/injection, schedule: Q04DX002 (ip), vehicle: Klucel (hydroxypropylcellulose) (HPC) 96 % of control

CN(C)P(=O)(Nc1ccc(Cl)cc1)Nc1ccc(Cl)cc1
inactive: [5] 94 % of control | [7] 96 % of control | [9] 100 % of control

CC(C)(C)c1cc(C#N)cc(C(C)(C)C)c1O
inactive: dose: 50.0 mg/kg/injection, schedule: Q01DX009 (ip), vehicle: Klucel (hydroxypropylcellulose) (HPC) 96 % of control | dose: 100.0 mg/kg/injection, schedule: Q01DX009 (ip), vehicle: Klucel (hydroxypropylcellulose) (HPC) 103 % of control | dose: 200.0 mg/kg/injection, schedule: Q01DX009 (ip), vehicle: Klucel (hydroxypropylcellulose) (HPC) 96 % of control

O=C(c1ccccc1)c1ccc(C(=O)c2ccccc2)c2c1C(=O)c1ccccc1C2=O
inactive: [15] 92 % of control | [16] 95 % of control | [17] 98 % of control

CSc1ccc(NC(=O)Nc2ccc(N=Nc3ccccc3)cc2)cc1
inactive: [10] 95 % of control | [11] 92 % of control | dose: 50.0 mg/kg/injection, schedule: Q01DX009 (ip), vehicle: saline with Tween-80 95 % of control | dose: 50.0 mg/kg/injection, schedule: Q04DX003 (ip), vehicle: Klucel (hydroxypropylcellulose) (HPC) 87 % of control | dose: 75.0 mg/kg/injection, schedule: Q01DX009 (ip), vehicle: saline with Tween-80 106 % of control | dose: 100.0 mg/kg/injection, schedule: Q01DX001 (ip), vehicle: other 89 % of control | dose: 115.0 mg/kg/injection, schedule: Q01DX009 (ip), vehicle: saline with Tween-80 92 % of control | dose: 170.0 mg/kg/injection, schedule: Q01DX009 (ip), vehicle: saline with Tween-80 90 % of control | dose: 200.0 mg/kg/injection, schedule: Q01DX001 (ip), vehicle: other 89 % of control

CN(C)CCCN1CCC2(CC1)C(C#N)C(=O)NC(=O)C2C#N (centres undefined)
inactive: dose: 100.0 mg/kg/injection, schedule: Q04DX002 (ip), vehicle: saline 92 % of control | dose: 200.0 mg/kg/injection, schedule: Q04DX002 (ip), vehicle: saline 100 % of control | dose: 400.0 mg/kg/injection, schedule: Q04DX002 (ip), vehicle: saline 111 % of control

Nc1nc(-c2cccs2)cc(C(F)(F)F)n1
inactive: [5] 94 % of control | [7] 94 % of control | [9] 102 % of control

O=C(/C=C/c1ccccc1)Nc1ccc2ccccc2c1
inactive: [12] 107 % of control and 108 % of control | dose: 100.0 mg/kg/injection, schedule: Q04DX002 (ip), vehicle: saline with Tween-80 102 % of control and 114 % of control | [15] 92 % of control | [13] 96 % of control and 108 % of control | dose: 200.0 mg/kg/injection, schedule: Q04DX002 (ip), vehicle: saline with Tween-80 96 % of control and 102 % of control | [16] 100 % of control | [14] 94 % of control and 101 % of control | dose: 400.0 mg/kg/injection, schedule: Q04DX002 (ip), vehicle: saline with Tween-80 93 % of control and 107 % of control | [17] 101 % of control
